Test results reported in patent US20230337674A1, “FUNGICIDAL COMPOSITIONS” (SYNGENTA CROP PROTECTION AG, priority 2020, published 2023).
“And” between values parts separate entries of the source, which are not always exact repeats. Equal entries are not always repeated. Where two headings read alike, the source gives them in different places.

Tests used:
[1] = test system: Septoria tritici; assay: Septoria tritici growth inhibition in nutrient broth (microtiter plate); format: cell-based; conditions: Zymoseptoria tritici, read-out: Observed Activity (%)
Procedure: Septoria tritici (Leaf Blotch):
(§1) Conidia of the fungus from cryogenic storage were directly mixed into nutrient broth (PDB potato dextrose broth). A DMSO solution of the test compounds was placed into a microtiter plate (96-well format) and the nutrient broth containing the fungal spores was added to it. The test plates were incubated at 24° C. and the inhibition of growth was determined photometrically after 72 hrs.

[2] = test system: Phakopsora pachyrhizi; assay: Phakopsora pachyrhizi on leaf disks from treated whole soybean plants; format: in vivo; conditions: evaluation 11 to 14 days after inoculation; for inhibition at 0.25 g/ha / inhibition at 0.5 g/ha / inhibition at 1 g/ha / inhibition at 2 g/ha: Phakopsora pachyrhizi, foliar
Procedure: Phakopsora pachyrhizi (Soybean Rust):
Whole soybean plants are treated with the recited active ingredients 4 weeks after planting. 1 day after spraying leaf disks are cut from the first trifoliate leaf. Five repetitions at each rate are conducted. The leaf disks are inoculated with Phakopsora pachyrhizi (Asian soybean rust) one day after treatment. Evaluation of the leaf disks is conducted 11 to 14 days after inoculation and the activity is derived from the relation of the treated vs untreated, infested check. The rates of the active ingredients used are given in Table as g active ingredient (a.i.)/ha.

[3] = test system: Corynespora cassiicola; assay: Corynespora cassiicola growth inhibition in nutrient broth (microtiter plate); format: cell-based; conditions: read-out: Observed Activity (%)
Procedure: Corynespora cassiicola (Target Spot of Soybean, Target Leaf Spot of Tomato):
as §1, with “3-4 days at 620 nm.” for “72 hrs.”

[4] = single active, 0.5 g/ha, read-out: Observed Activity (%)
[5] = single active, read-out: Observed Activity (%)

## CNC(=O)C(F)(F)c1ccc(-c2noc(C(F)(F)F)n2)cc1 [Compound A-1.1, 2,2-difluoro-N-methyl-2-[4-[5-(trifluoromethyl)-1,2,4-oxadiazol-3-yl]phenyl]acetamide]
[1]; single active, 72 hrs, 24° C.
  inhibition at 5 ppm: 20%
[1]; single active, 10 ppm, 72 hrs, 24° C.
  inhibition at 10 ppm: 20%
[1]; single active, 20 ppm, 72 hrs, 24° C.
  inhibition at 20 ppm: 50%
[2]; single active, 0.25 g/ha, read-out: Observed Activity (%)
  inhibition at 0.25 g/ha: 0%
[2]; [4]
  inhibition at 0.5 g/ha: 3%
[2]; [5]
  inhibition at 1 g/ha: 54%

## CNC(=S)c1ccc(-c2noc(C(F)(F)F)n2)cc1 [Compound A-1.2, N-methyl-4-[5-(trifluoromethyl)-1,2,4-oxadiazol-3-yl]benzenecarbothioamide]
[3]; single active, 5 ppm, 3-4 days, 24° C.
  inhibition at 5 ppm: 0%
[3]; single active, 10 ppm, 3-4 days, 24° C.
  inhibition at 10 ppm: 0%
[3]; single active, 20 ppm, 3-4 days, 24° C.
  inhibition at 20 ppm: 0%
[1]; single active, 72 hrs, 24° C.
  inhibition at 5 ppm: 50%
[2]; [4]
  inhibition at 0.5 g/ha: 0%
[2]; [5]
  inhibition at 1 g/ha: 88%
  inhibition at 2 g/ha: 95%

## O=C(Nc1ccccc1F)c1ccc(-c2noc(C(F)(F)F)n2)cc1 [Compound A-1.3, N-(2-fluorophenyl)-4-[5-(trifluoromethyl)-1,2,4-oxadiazol-3-yl]benzamide]
[2]; [4]
  inhibition at 0.5 g/ha: 0%
[2]; [5]
  inhibition at 1 g/ha: 29%
  inhibition at 2 g/ha: 78%

## C[C@@H]1CC(C)(C)c2cccc(NC(=O)c3cn(C)nc3C(F)F)c21 [Inpyrfluxam, 3-(difluoromethyl)-1-methyl-N-[(3R)-1,1,3-trimethylindan-4-yl]pyrazole-4-carboxamide, reference compound]
[3]
  inhibition at 0.01 ppm: 0%
  inhibition at 0.02 ppm: 0%
[1]; 72 h
  inhibition at 0.02 ppm: 0%
  inhibition at 0.04 ppm: 20%
[2]; read-out: Observed Activity (%), single active, 0.25 g/ha
  inhibition at 0.25 g/ha: 50%
[2]; single active, 0.5 g/ha
  Observed Activity (%): 46% and 82%
